Experiments:
K. pneumoniae = assay: In vitro uptake of 18F-tracers by bacteria; assay type: cell-based, Klebsiella pneumoniae
Description: In vitro evaluation of ^18F-tracers was conducted according to our established procedure. Briefly, bacteria were incubated overnight at 37 °C, subcultured into a fresh medium at an initial OD600 of 0.05, and then allowed to reach the mid log phase (OD600 ∼ 0.4). The cultures were subsequently incubated with ^18F-tracers (final concentration: 0.1 MBq/mL) at 37 °C for 90 min. Subsequently, 300 μL aliquots of these cultures were centrifuged at 13,200 rpm for 6 min. The resulting pellets were washed with 300 μL of phosphate-buffered saline (PBS). The radioactivity of the pellets and supernatants was measured using a gamma counter. Uptake values were normalized to colony-forming units (CFUs).

[1] = In vitro stability in serum; assay type: in vitro ADME, human; settings: up to 120 min at 37 °C
[2] = Dynamic PET/CT and ex vivo biodistribution in uninfected mice; settings: for ex vivo residual activity in organs versus [18F]FDS: heart, lung, stomach, liver, intestine, kidney, muscle, after 90 min PET/CT; for peak uptake (Cmax) in bladder / peak uptake (Cmax) in kidneys / peak uptake (Cmax) in liver: dynamic PET 90 min; for elimination half-life (T1/2β) / plasma distribution half-life (T1/2α): blood pool TAC, two-compartment fit
Description: To assess the effect of [^18F]-FDS glycosylation on tissue uptake in vivo, we performed dynamic PET/CT scans for 90 min after the intravenous injection of [^18F]-FNT, [^18F]-FMT, and [^18F]-FDS in uninfected mice, followed by ex vivo analysis.
(§1) μPET/CT imaging was conducted using a nanoScan μPET/CT instrument (PET123S/CT1512, Mediso). Mice were anesthetized with 2% isoflurane/oxygen for intravenous administration of ^18F-tracers (∼5 MBq in 150 μL) via tail vein and maintained during data acquisition. PET data of uninfected mice were acquired in the list mode for 90 min, starting immediately after ^18F-tracer administration, followed by a CT scan. The PET data were reconstructed into three-dimensional volumes and coregistered with CT images using manufacturer-provided software in 53 dynamic frames (15 × 2 s, 6 × 5 s, 6 × 10 s, 4 × 30 s, 6 × 30 s, and 16 × 300 s). PET data of infected mice were acquired for 20 min, starting at 70 min postinjection of ^18F-tracer (mid time 80 min), followed by a CT scan. The list mode PET data were reconstructed into three-dimensional volumes in a single static frame. All PET scans were corrected for ^18F decay, dead time, and random coincidences and reconstructed into a 160 × 160 × 184 matrix with voxel size 0.8 mm using a three-dimensional ordered subject expectation maximization (OSEM) algorithm (40 iterations, 1 subset). Both attenuation and scatter corrections were applied to PET reconstructions using the coregistered CT. ROIs were drawn manually around the brain, lungs, liver, kidney, and urinary bladder using Amide software to generate image-derived TACs. For the estimation of blood pool radioactivity over time, ROIs were drawn on the left atrium. To estimate the plasma half-life of tracers, the TAC of the blood pool was fitted to a two-compartment model using a biexponential decay function: C t(t) = Ae ^–αt + Be ^ ‑βt , where C t(t) is the tracer concentration (% IDcc^–1) at time (t), A and B are the intercepts, and α and β are the distribution and elimination rate constants, respectively. , Quantitative uptake values are expressed as % IDcc^–1, representing the percent of the total injected dose per cubic centimeter. For the S. aureus myositis model, identical volume ROIs were drawn corresponding to the peak uptake of [^18F]-FNT at the live S. aureus inoculated site and heat-killed S. aureus inoculated site, respectively.

MRSA = assay: PET/CT in MRSA myositis murine model; assay type: in vivo, mice; settings: for ratio of live/heat-killed S. aureus inoculated sites, in vivo: PET 80 min postinjection (mid time)
Description: We next compared [^18F]-FNT and [^18F]-FMT PET in a S. aureus myositis model. […] To compare the in vivo detection sensitivity of [^18F]-FNT and [^18F]-FMT in a MRSA myositis model, we injected the left deltoid with live MRSA and the right deltoid with 10x heat-killed MRSA, respectively (Figure B).
All animal procedures were conducted in accordance with UCSF institutional guidelines and were approved by the Institutional Animal Care and Use Committee (IACUC). Female CBA/J mice (9 and 11 weeks old) were used for the study. Pulmonary infection and bacterial myositis models were established based on previously published protocols. , For pulmonary infection, 50 μL of K. pneumoniae (5 × 10^6 CFU) or 10× heat-killed K. pneumoniae were administered intranasally under anesthesia 24 h prior to imaging using PET. After PET scans, infected lungs were homogenized in PBS and plated on LB agar. Plates were incubated overnight at 37 °C to quantify the bacterial burden. […] Immediately following all imaging studies, target tissues were harvested, and radioactivity was measured using a gamma counter.
as §1

| Structure (SMILES) | in vitro uptake (K. pneumoniae) | in vitro stability in human serum [1] | ex vivo residual activity in organs versus [18F]FDS [2] | peak uptake (Cmax) in bladder ([2]; uninfected mice, i.v.) [% IDcc^–1] | peak uptake (Cmax) in kidneys ([2]; uninfected mice, i.v.) [% IDcc^–1] | peak uptake (Cmax) in liver ([2]; uninfected mice, i.v.) [% IDcc^–1] | elimination half-life (T1/2β) ([2]; uninfected mice) [min] | plasma distribution half-life (T1/2α) ([2]; uninfected mice) [min] | ratio of live/heat-killed S. aureus inoculated sites, in vivo (MRSA; MRSA myositis) [fold] | ratio of live/heat-killed S. aureus inoculated sites, ex vivo (MRSA; MRSA myositis, ex vivo analysis) [fold] | area under the curve (AUC0→90min) in bladder ([2]; uninfected mice, i.v.) [% IDcc^–1·min] | area under the curve (AUC0→90min) in liver ([2]; uninfected mice, i.v.) [% IDcc^–1·min] | uptake at heat-killed sites, dynamic PET (MRSA; by 70 min postinjection) | PET signal at live MRSA inoculated deltoid, 10^4 CFU (MRSA; inoculum 10^4 CFU, not significant vs uninfected controls (P = 0.2187)) | PET signal at sites inoculated with heat-killed MRSA (MRSA; static PET/CT 80 min postinjection (mid time)) |
| --- | --- | --- | --- | --- | --- | --- | --- | --- | --- | --- | --- | --- | --- | --- | --- |
| OC[C@@H](O)[C@@H](O[C@H]1O[C@H](CO)[C@@H](O)[C@H](O)[C@H]1O)[C@H](O)[C@@H]([18F])CO [[18F]FMT, 2-deoxy-2-[18F]fluoro-D-maltitol] | considerable uptake | intact | significantly lower residual activity | 562.7 ± 31.3 | 102.3 ± 8.4 | 17.7 ± 0.9 | 12.70 | 0.55 | 6 | 2.7 |  |  |  |  |  |
| OC[C@@H](O)[C@@H](O)[C@H](O[C@H]1O[C@H](CO)[C@@H](O)[C@H](O)[C@H]1O)[C@@H]([18F])CO [[18F]FNT, 2-deoxy-2-[18F]fluoro-D-nigeritol] | considerable uptake | intact | significantly lower residual activity | 606.8 ± 9.0 | 104.5 ± 14.2 | 19.2 ± 0.9 | 14.07 | 0.52 | ~28 |  | 44418.3 ± 950.9 | 105.7 ± 4.0 | negligible | negligible signals | no detectable signal |

Source: PMC12728616, “Regioselective Glycosylation of Fluorine-18-Labeled Sorbitol for Enhanced Bacterial Detection In Vivo Using PET” (JACS Au, 2025)
